Here are results for seven compounds from patent US20010046987A1, “Oxazolidinones having a sulfoximine functionality” (priority 1999, published 2001).

One data set concerns Staphylococcus aureus. Description: MIC by agar dilution, SAUR 9213. The conditions noted are these: Staphylococcus aureus, strain SAUR 9213, read-out: Antibacterial Activity Minimum Inhibitory Concentration SAUR 9213. Format: cell-based. The source says: (§1) The in vitro activity of compounds of this invention can be assessed by standard testing procedures such as the determination of minimum inhibitory concentration (MIC) by agar dilution as described in “Approved Standard.
On the technique in general: Agar dilution tests growth on a series of plates holding different concentrations.

Another data set relates to H. influenzae. Description: MIC by agar dilution, HINF 30063. Format: cell-based. The conditions noted are these: Haemophilus influenzae, strain HINF 30063, read-out: Antibacterial Activity Minimum Inhibitory Concentration HINF 30063.
Description: as §1

For the next data set, the system named is Enterococcus faecium. The data set is described as follows: MIC by agar dilution, EFAE 12712. Format: cell-based. Particulars: Enterococcus faecium, strain EFAE 12712, read-out: Antibacterial Activity Minimum Inhibitory Concentration EFAE 12712.
Description: as §1

The subject of the next data set is Moraxella catarrhalis. Description: MIC by agar dilution, MCAT 30607. In kind it is cell-based. The conditions noted are these: Moraxella catarrhalis, strain MCAT 30607, read-out: Antibacterial Activity Minimum Inhibitory Concentration MCAT 30607.
Description: as §1

In data set [1] the test system is Staphylococcus epidermidis. The data set is described as follows: MIC by agar dilution, SEPI 30593. In kind it is cell-based. Particulars: Staphylococcus epidermidis, strain SEPI 30593, read-out: Antibacterial Activity Minimum Inhibitory Concentration SEPI 30593.
Description: as §1

Another data set has as its system Streptococcus pneumoniae. Description: MIC by agar dilution, SPNE 9912. The conditions noted are these: Streptococcus pneumoniae, strain SPNE 9912, read-out: Antibacterial Activity Minimum Inhibitory Concentration SPNE 9912. Format: cell-based.
Description: as §1

For another data set, the system named is Streptococcus pyogenes. Description: MIC by agar dilution, SPYO 152. Format: cell-based. Particulars: Streptococcus pyogenes, strain SPYO 152, read-out: Antibacterial Activity Minimum Inhibitory Concentration SPYO 152.
Description: as §1

The subject of a further data set is Enterococcus faecalis. Description: MIC by agar dilution, EFAE 9217. In kind it is cell-based. Particulars: Enterococcus faecalis, strain EFAE 9217, read-out: Antibacterial Activity Minimum Inhibitory Concentration EFAE 9217.
Description: as §1

Values after ≈ are worked out from the molar mass of the structure shown.

A word on the melting point: it is the temperature of the solid-liquid transition.

Consider `CCC(=S)NCC1CN(c2ccc(C3CC[S+2]([O-])([N-]CCCc4ccccc4)CC3)c(F)c2)C(=O)O1` [Example 17, N-({(5S)-3-[3-Fluoro-4-[1-[(3-phenylpropyl)imino]-1-oxidohexahydro-1λ^4-thiopyran-4-yl]phenyl]-2-oxo-1,3-oxazolidin-5-yl}methyl)propanethioamide, Z-isomer], for which the melting point lay in the range of 165.5 to 167 °C. For the same compound, the MIC in the data set with Staphylococcus aureus amounted to 2 µg/mL (≈ 3.76 µM). Moreover, in the data set with H. influenzae, the MIC is over 64 µg/mL. Moreover, the MIC with Enterococcus faecium stood at 2 µg/mL (≈ 3.76 µM). Besides, in the data set on Moraxella catarrhalis, the MIC stood at 2 µg/mL (≈ 3.76 µM). Further, the MIC in data set [1] is 2 µg/mL (≈ 3.76 µM). Also, the MIC with Streptococcus pneumoniae worked out at 0.5 µg/mL (≈ 0.94 µM). Also, the MIC in the data set with Streptococcus pyogenes came out at 1 µg/mL (≈ 1.88 µM). Besides, the MIC in the data set on Enterococcus faecalis worked out at 1 µg/mL (≈ 1.88 µM).

Compound `CCC(=S)NCC1CN(c2ccc(C3CC[S+2]([O-])([N-]Cc4ccccc4)CC3)c(F)c2)C(=O)O1` [Example 16, N-({(5S)-3-[3-Fluoro-4-[1-[(phenylmethyl)imino]-1-oxidohexahydro-1λ^4-thiopyran-4-yl]phenyl]-2-oxo-1,3-oxazolidin-5-yl}methyl)propanethioamide, Z-isomer] came in with a melting point of 207 to 208 °C. Further, the MIC in the data set with Staphylococcus aureus was 2 µg/mL (≈ 3.97 µM). Also, in the data set with H. influenzae, the MIC was over 64 µg/mL. The MIC in the data set with Enterococcus faecium was determined as 1 µg/mL (≈ 1.99 µM). The MIC in the data set on Moraxella catarrhalis worked out at 2 µg/mL (≈ 3.97 µM). In addition, in data set [1], the MIC was determined as 1 µg/mL (≈ 1.99 µM). The MIC with Streptococcus pneumoniae turned out to be 0.25 µg/mL (≈ 0.496 µM). Also, the MIC with Streptococcus pyogenes turned out to be 0.5 µg/mL (≈ 0.993 µM). In addition, the MIC with Enterococcus faecalis is 1 µg/mL (≈ 1.99 µM).

With `CCC(=S)NCC1CN(c2ccc(C3CC[S+2]([O-])([N-]C(=O)Nc4ccc([N+](=O)[O-])cc4)CC3)c(F)c2)C(=O)O1` [Example 21, N-({(5S)-3-[3-Fluoro-4-(1-{[[(4-nitrophenyl)amino]carbonyl]imino}-1-oxidohexahydro-1λ^4-thiopyran-4-yl)phenyl]-2-oxo-1,3-oxazolidin-5-yl}methyl)propanethioamide, Z-isomer], the melting point was 222 to 228 °C. In the data set on Staphylococcus aureus, the MIC was found to be 0.5 µg/mL (≈ 0.866 µM). For the same compound, the MIC with H. influenzae is over 64 µg/mL. For the same compound, in the data set on Enterococcus faecium, the MIC came out at 0.25 µg/mL (≈ 0.433 µM). Further, the MIC in the data set with Moraxella catarrhalis was 0.25 µg/mL (≈ 0.433 µM). Also, in [1], the MIC worked out at 0.25 µg/mL (≈ 0.433 µM). In addition, the MIC in the data set with Streptococcus pneumoniae was under 0.06 µg/mL. For the same compound, the MIC in the data set on Streptococcus pyogenes was determined as 0.125 µg/mL (≈ 0.216 µM). Moreover, the MIC in the data set on Enterococcus faecalis is 0.25 µg/mL (≈ 0.433 µM).

As for `CCC(=S)NC[C@H]1CN(c2ccc(N3CCS(=N)(=O)CC3)c(F)c2)C(=O)O1` [Example 2, N-({(5S)-3-[3-Fluoro-4-(1-imino-1-oxido-1λ^4,4-thiazinan-4-yl)phenyl]-2-oxo-1,3-oxazolidin-5-yl}methyl)propanethioamide], the melting point lay within 189 to 190 °C. In the data set on Staphylococcus aureus, the MIC amounted to 1 µg/mL (≈ 2.41 µM). For the same compound, the MIC with H. influenzae was 2 µg/mL (≈ 4.82 µM). Besides, the MIC in the data set on Enterococcus faecium is 0.5 µg/mL (≈ 1.21 µM). In the data set on Moraxella catarrhalis, the MIC came to 2 µg/mL (≈ 4.82 µM). In addition, the MIC in data set [1] came to 0.25 µg/mL (≈ 0.603 µM). In the data set on Streptococcus pneumoniae, the MIC is 0.25 µg/mL (≈ 0.603 µM). Also, in the data set on Streptococcus pyogenes, the MIC was determined as 0.25 µg/mL (≈ 0.603 µM). Moreover, in the data set with Enterococcus faecalis, the MIC was 0.5 µg/mL (≈ 1.21 µM).

On to `C[N-][S+2]1([O-])CCC(c2ccc(N3CC(CNC(=S)C4CC4)OC3=O)cc2F)CC1` [Example 29, N-({(5S)-3-[3-Fluoro-4-[1-(methylimino)-1-oxidohexahydro-1λ^4-thiopyran-4-yl]phenyl]-2-oxo-1,3-oxazolidin-5-yl}methyl)cyclopropanecarbothioamide, Z-isomer], for which the melting point was 201 to 202 °C (dec.). Also, the MIC in the data set with Staphylococcus aureus was 1 µg/mL (≈ 2.27 µM). In addition, the MIC with H. influenzae was 4 µg/mL (≈ 9.1 µM). The MIC in the data set with Enterococcus faecium was 1 µg/mL (≈ 2.27 µM). In addition, the MIC with Moraxella catarrhalis was 2 µg/mL (≈ 4.55 µM). The MIC in data set [1] worked out at 0.5 µg/mL (≈ 1.14 µM). The MIC in the data set with Streptococcus pneumoniae worked out at 0.25 µg/mL (≈ 0.569 µM). Moreover, the MIC with Streptococcus pyogenes is 0.5 µg/mL (≈ 1.14 µM). Further, the MIC in the data set with Enterococcus faecalis was 0.5 µg/mL (≈ 1.14 µM).

Turning to `CCC(=S)NC[C@H]1CN(c2ccc([C@H]3CC[S@+2]([O-])([N-]C(N)=O)CC3)c(F)c2)C(=O)O1` [Example 22, N-({(5S)-3-[3-Fluoro-4-[1-[(aminocarbonyl)imino]-1-oxidohexahydro-1λ^4-thiopyran-4-yl]phenyl]-2-oxo-1,3-oxazolidin-5-yl}methyl)propanethioamide, Z-isomer], the melting point was 236 to 238 °C (dec.). Also, the MIC in the data set on Staphylococcus aureus turned out to be 2 µg/mL (≈ 4.38 µM). Further, the MIC with H. influenzae stood at 4 µg/mL (≈ 8.76 µM). Also, the MIC in the data set on Enterococcus faecium was determined as 0.5 µg/mL (≈ 1.1 µM). Moreover, in the data set with Moraxella catarrhalis, the MIC was determined as 2 µg/mL (≈ 4.38 µM). Also, the MIC in [1] was 0.05 µg/mL (≈ 0.11 µM). Also, the MIC with Streptococcus pneumoniae amounted to 0.125 µg/mL (≈ 0.274 µM). Moreover, the MIC in the data set with Streptococcus pyogenes turned out to be 0.5 µg/mL (≈ 1.1 µM). In addition, in the data set on Enterococcus faecalis, the MIC is 0.5 µg/mL (≈ 1.1 µM).

The compound `CCC(=S)NCC1CN(c2ccc(C3CC[S+2]([O-])([N-]C(=O)NC)CC3)c(F)c2)C(=O)O1` [Example 18, N-({(5S)-3-[3-Fluoro-4-(1-{[(methylamino)carbonyl]imino}-1-oxidohexahydro-1λ^4-thiopyran-4-yl)phenyl]-2-oxo-1,3-oxazolidin-5-yl}methyl)propanethioamide, Z-isomer] returned a melting point of 203 to 204 °C. Moreover, in the data set on Staphylococcus aureus, the MIC amounted to 2 µg/mL (≈ 4.25 µM). The MIC in the data set on H. influenzae was found to be 8 µg/mL (≈ 17 µM). Moreover, in the data set on Enterococcus faecium, the MIC amounted to 1 µg/mL (≈ 2.12 µM). In addition, the MIC in the data set on Moraxella catarrhalis came to 4 µg/mL (≈ 8.5 µM). In addition, in data set [1], the MIC was 1 µg/mL (≈ 2.12 µM). Also, the MIC in the data set on Streptococcus pneumoniae is 0.25 µg/mL (≈ 0.531 µM). Moreover, the MIC with Streptococcus pyogenes amounted to 0.5 µg/mL (≈ 1.06 µM). The MIC in the data set on Enterococcus faecalis was 1 µg/mL (≈ 2.12 µM).
